From patent US9999622B2, “Pyrazolothiazole compound and medicine comprising same” (NIPPON SHINYAKU CO., LTD., priority 2014, dated 2018)
Where a name gives a salt, the structure may show the parent alone.

Legend:
Type in all cases: biochemical
JAK3 = biological target: T1, JAK3 (Homo sapiens, UniProt P52333); test: JAK tyrosine kinase inhibitory activity in the presence of 1 mM ATP (ELISA), JAK3
T1 construct: purchased Carna Biosciences, Inc
T1 sequence (P52333 1-1124): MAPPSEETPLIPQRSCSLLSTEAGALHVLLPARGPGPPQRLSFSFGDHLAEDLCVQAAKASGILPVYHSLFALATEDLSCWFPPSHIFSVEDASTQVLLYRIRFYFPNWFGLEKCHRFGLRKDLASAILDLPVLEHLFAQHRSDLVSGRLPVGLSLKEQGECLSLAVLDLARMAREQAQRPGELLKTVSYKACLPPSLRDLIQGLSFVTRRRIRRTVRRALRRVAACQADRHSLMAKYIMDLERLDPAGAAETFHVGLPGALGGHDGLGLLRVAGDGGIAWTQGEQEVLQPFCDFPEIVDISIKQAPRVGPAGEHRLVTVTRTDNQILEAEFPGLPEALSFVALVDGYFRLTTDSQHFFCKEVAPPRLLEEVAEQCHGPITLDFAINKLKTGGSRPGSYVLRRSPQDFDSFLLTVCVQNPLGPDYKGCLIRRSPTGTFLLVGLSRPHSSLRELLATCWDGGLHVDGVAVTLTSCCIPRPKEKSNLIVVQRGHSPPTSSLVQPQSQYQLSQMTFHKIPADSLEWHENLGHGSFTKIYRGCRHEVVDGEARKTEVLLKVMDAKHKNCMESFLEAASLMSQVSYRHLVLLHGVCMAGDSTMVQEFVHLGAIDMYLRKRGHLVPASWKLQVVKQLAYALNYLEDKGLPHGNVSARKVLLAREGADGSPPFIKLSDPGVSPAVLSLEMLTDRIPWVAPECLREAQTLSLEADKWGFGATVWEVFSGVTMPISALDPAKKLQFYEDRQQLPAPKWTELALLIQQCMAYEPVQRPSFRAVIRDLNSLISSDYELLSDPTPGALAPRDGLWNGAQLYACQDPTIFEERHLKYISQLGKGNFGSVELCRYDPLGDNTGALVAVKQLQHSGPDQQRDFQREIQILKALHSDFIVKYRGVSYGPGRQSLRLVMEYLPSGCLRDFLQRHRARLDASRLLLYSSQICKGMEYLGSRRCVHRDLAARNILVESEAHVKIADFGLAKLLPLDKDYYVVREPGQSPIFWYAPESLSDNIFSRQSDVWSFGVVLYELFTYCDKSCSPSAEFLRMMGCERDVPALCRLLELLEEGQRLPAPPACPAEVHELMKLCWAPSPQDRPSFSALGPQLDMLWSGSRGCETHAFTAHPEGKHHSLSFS
Procedure, shortened: (§1)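 Kinase reactions ran on streptavidin-coated plates in 15 mM Tris-HCl pH 7.5, 0.01% Tween-20, 1 mM DTT, 30 °C for 1 h. Enzyme was prediluted to 7.5 nM (JAK1) or 0.75 nM (JAK2, JAK3) before addition. Phosphotyrosine was detected with HRP anti-pTyr antibody and TMB at A450.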

JAK1 = biological target: T2, JAK1 (Homo sapiens, UniProt P23458); test: JAK tyrosine kinase inhibitory activity in the presence of 1 mM ATP (ELISA), JAK1
T2 construct: purchased Carna Biosciences, Inc
Procedure, shortened: as §1

JAK2 = biological target: T3, JAK2 (Homo sapiens, UniProt O60674); test: JAK tyrosine kinase inhibitory activity in the presence of 1 mM ATP (ELISA), JAK2
T3 construct: purchased Carna Biosciences, Inc
Procedure, shortened: as §1

T3 sequence (O60674 whole entry): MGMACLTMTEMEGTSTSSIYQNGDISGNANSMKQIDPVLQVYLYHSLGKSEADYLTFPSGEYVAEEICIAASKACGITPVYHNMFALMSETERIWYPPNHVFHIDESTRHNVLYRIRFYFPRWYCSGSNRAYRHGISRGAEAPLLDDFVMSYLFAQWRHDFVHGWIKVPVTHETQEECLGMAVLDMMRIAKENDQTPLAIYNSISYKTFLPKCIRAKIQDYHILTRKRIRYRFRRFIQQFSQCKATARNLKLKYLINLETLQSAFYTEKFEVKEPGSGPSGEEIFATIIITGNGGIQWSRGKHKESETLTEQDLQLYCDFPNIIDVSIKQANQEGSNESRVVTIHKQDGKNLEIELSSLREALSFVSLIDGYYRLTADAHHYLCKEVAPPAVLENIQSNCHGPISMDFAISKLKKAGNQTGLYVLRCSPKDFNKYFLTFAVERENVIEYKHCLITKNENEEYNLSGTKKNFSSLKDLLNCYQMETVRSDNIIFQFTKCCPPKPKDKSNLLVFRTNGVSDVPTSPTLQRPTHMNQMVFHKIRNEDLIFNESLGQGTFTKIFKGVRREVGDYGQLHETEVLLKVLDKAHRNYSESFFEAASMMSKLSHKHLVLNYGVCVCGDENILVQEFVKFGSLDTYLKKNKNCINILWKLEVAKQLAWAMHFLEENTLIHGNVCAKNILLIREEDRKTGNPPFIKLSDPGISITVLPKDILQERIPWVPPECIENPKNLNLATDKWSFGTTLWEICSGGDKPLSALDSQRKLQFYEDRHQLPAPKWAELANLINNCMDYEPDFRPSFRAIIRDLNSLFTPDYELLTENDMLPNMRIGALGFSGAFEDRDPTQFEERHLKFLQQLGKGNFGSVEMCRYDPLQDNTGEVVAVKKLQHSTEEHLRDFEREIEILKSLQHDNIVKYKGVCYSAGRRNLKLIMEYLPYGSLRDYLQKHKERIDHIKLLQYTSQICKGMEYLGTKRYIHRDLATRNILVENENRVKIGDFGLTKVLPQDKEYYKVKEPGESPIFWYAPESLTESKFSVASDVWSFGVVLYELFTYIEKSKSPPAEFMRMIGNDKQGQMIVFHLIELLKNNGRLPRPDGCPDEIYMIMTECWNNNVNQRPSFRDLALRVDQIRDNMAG
T2 sequence (P23458 whole entry): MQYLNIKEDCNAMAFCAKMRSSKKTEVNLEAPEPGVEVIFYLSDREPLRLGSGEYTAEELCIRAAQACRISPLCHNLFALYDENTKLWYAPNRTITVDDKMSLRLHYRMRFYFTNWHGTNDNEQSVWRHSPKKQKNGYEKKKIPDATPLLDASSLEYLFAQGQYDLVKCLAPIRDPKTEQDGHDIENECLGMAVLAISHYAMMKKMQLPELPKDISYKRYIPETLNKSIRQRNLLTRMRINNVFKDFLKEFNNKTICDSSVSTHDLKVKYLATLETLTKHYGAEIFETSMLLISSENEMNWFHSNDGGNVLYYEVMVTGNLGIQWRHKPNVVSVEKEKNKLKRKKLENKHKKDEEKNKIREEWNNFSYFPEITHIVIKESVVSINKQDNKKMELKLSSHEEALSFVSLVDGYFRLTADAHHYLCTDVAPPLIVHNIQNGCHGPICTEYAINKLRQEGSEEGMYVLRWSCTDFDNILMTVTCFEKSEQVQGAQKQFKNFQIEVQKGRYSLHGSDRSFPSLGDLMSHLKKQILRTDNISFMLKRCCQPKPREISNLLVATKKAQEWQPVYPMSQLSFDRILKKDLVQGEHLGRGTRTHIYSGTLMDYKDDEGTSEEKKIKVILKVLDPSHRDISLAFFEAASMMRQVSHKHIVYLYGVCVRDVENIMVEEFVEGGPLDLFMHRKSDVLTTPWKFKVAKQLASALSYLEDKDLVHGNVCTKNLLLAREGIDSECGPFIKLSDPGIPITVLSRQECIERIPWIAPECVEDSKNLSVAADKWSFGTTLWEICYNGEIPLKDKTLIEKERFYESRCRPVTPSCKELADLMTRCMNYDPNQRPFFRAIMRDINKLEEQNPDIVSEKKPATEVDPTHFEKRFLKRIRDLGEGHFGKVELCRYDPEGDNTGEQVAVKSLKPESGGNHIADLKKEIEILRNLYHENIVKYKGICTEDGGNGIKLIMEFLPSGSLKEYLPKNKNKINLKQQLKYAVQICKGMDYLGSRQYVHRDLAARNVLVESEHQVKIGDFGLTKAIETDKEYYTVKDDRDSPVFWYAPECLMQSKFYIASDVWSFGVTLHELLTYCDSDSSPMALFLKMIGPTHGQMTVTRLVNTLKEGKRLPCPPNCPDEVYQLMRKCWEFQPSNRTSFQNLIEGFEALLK

Row | Structure (SMILES) | IC50 (JAK3) [nM] | IC50 (JAK1) [nM] | IC50 (JAK2) [nM]
1 | O=C(NC1CCN(C(=O)c2cc(NC3CCOCC3)nc(-c3cnn4ccsc34)n2)CC1)C1CC1 [Example 172, N-(1-6-[(oxan-4-yl)amino]-2-(pyrazolo[5,1-b][1,3]thiazol-7-yl)pyrimidine-4-carbonylpiperidin-4-yl)cyclopropanecarboxamide] | > 10000 | 320 | > 10000
2 | O=C(NC1CCN(C(=O)c2cc(NC3COC3)nc(-c3cnn4ccsc34)n2)CC1)C1CC1 [Example 173, N-(1-6-[(oxetan-3-yl)amino]-2-(pyrazolo[5,1-b][1,3]thiazol-7-yl)pyrimidine-4-carbonylpiperidin-4-yl)cyclopropanecarboxamide] | > 10000 | 3400 | > 10000
3 | COC(=O)NC1CCN(C(=O)c2cc(NCC(C)(C)CC3CC3)nc(-c3cnn4ccsc34)n2)CC1 [Example 174, Methyl (1-6-[(3-cyclopropyl-2,2-dimethylpropyl)amino]-2-(pyrazolo[5,1-b][1,3]thiazol-7-yl)pyrimidine-4-carbonylpiperidin-4-yl)carbamate] | 5600 | 300 | > 10000
4 | COC(=O)NC1CCN(C(=O)c2cc(NCC3CCN(S(C)(=O)=O)CC3)nc(-c3cnn4ccsc34)n2)CC1 [Example 175, Methyl 1-[6-([1-(methanesulfonyl)piperidin-4-yl]methylamino)-2-(pyrazolo[5,1-b][1,3]thiazol-7-yl)pyrimidine-4-carbonyl]piperidin 4-ylcarbamate] | > 10000 | 96 | > 10000
5 | O=C(NC1CCN(C(=O)c2cc(NC3CC4CCC3C4)nc(-c3cnn4ccsc34)n2)CC1)C1CC1 [Example 176, N-1-[6-[(1R)-bicyclo[2.2.1]heptan-2-yl]amino-2-(pyrazolo[5,1-b][1,3]thiazol-7-yl)pyrimidine-4-carbonyl]piperidin-4-ylcyclopropanecarboxamide] | 4600 | 78 | 4400
6 | COC(=O)NC1CCN(C(=O)c2cc(N[C@H]3CC[C@@H](O)CC3)nc(-c3cnn4ccsc34)n2)CC1 [Example 177, Methyl (1-6-[(cis-4-hydroxycyclohexyl)amino]-2-(pyrazolo[5,1-b][1,3]thiazol-7-yl)pyrimidine-4-carbonylpiperidin-4-yl)carbamate] | > 10000 | 300 | > 10000
7 | COC(=O)NC1CCN(C(=O)c2cc(N[C@H]3CC[C@H](O)CC3)nc(-c3cnn4ccsc34)n2)CC1 [Example 178, Methyl (1-6-[(trans-4-hydroxycyclohexyl)amino]-2-(pyrazolo[5,1-b][1,3]thiazol-7-yl)pyrimidine-4-carbonylpiperidin-4-yl)carbamate] | 9500 | 510 | > 10000
8 | COC(=O)NC1CCN(C(=O)c2cc(NC3CCCC3)nc(-c3cnn4ccsc34)n2)CC1 [Example 179, Methyl 1-[6-(cyclopentylamino)-2-(pyrazolo[5,1-b][1,3]thiazol-7-yl)pyrimidine-4-carbonyl]piperidin-4-ylcarbamate] | > 10000 | 320 | > 10000
9 | COC(=O)NC1CCN(C(=O)c2cc(NC3CCCCC3)nc(-c3cnn4ccsc34)n2)CC1 [Example 180, Methyl 1-[6-(cyclohexylamino)-2-(pyrazolo[5,1-b][1,3]thiazol-7-yl)pyrimidine-4-carbonyl]piperidin-4-ylcarbamate] | > 10000 | 560 | > 10000
10 | O=C(NC1CCN(C(=O)c2cc(NC3CCNCC3)nc(-c3cnn4ccsc34)n2)CC1)C1CC1 [Example 181, N-(1-6-[(piperidin-4-yl)amino]-2-(pyrazolo[5,1-b][1,3]thiazol-7-yl)pyrimidine-4-carbonylpiperidin-4-yl)cyclopropanecarboxamide dihydrochloride] | > 10000 | 860 | > 10000
11 | C[C@@H](Nc1cc(C(=O)N2CCC(NC(=O)C3CCCCC3)CC2)nc(-c2cnn3ccsc23)n1)C(C)(C)C [Example 182, N-1-[6-[(2R)-3,3-dimethylbutan-2-yl]amino-2-(pyrazolo[5,1-b][1,3]thiazol-7-yl)pyrimidine-4-carbonyl]piperidin-4-ylcyclohexanecarboxamide] | 1700 | 88 | 5400
12 | C[C@@H](Nc1cc(C(=O)N2CCC(NC(=O)c3ccccc3)CC2)nc(-c2cnn3ccsc23)n1)C(C)(C)C [Example 183, N-1-[6-[(2R)-3,3-dimethylbutan-2-yl]amino-2-(pyrazolo[5,1-b][1,3]thiazol-7-yl)pyrimidine-4-carbonyl]piperidin-4-ylbenzamide] | 1200 | 87 | > 10000
13 | Cc1ccccc1C(=O)NC1CCN(C(=O)c2cc(N[C@@H](C)C3CC3)nc(-c3cnn4ccsc34)n2)CC1 [Example 184, N-1-[6-[(1S)-1-cyclopropylethyl]amino-2-(pyrazolo[5,1-b][1,3]thiazol-7-yl)pyrimidine-4-carbonyl]piperidin-4-yl-2-methylbenzamide] | 470 | 62 | > 10000
14 | C[C@H](Nc1cc(C(=O)N2CCC(NC(=O)c3ccccn3)CC2)nc(-c2cnn3ccsc23)n1)C1CC1 [Example 185, N-1-[6-[(1S)-1-cyclopropylethyl]amino-2-(pyrazolo[5,1-b][1,3]thiazol 7 yl)pyrimidine-4-carbonyl]piperidin-4-ylpyridine-2-carboxamide] | 810 | 190 | > 10000
15 | COc1ccccc1C(=O)NC1CCN(C(=O)c2cc(N[C@@H](C)C3CC3)nc(-c3cnn4ccsc34)n2)CC1 [Example 186, N-1-[6-[(1S)-1-cyclopropylethyl]amino-2-(pyrazolo[5,1-b][1,3]thiazol-7-yl)pyrimidine-4-carbonyl]piperidin-4-yl-2-methoxybenzamide] | 580 | 81 | > 10000
16 | C[C@H](Nc1cc(C(=O)N2CCC(NC(=O)c3ccncc3)CC2)nc(-c2cnn3ccsc23)n1)C1CC1 [Example 187, N-1-[6-[(1S)-1-cyclopropylethyl]amino-2-(pyrazolo[5,1-b][1,3]thiazol-7-yl)pyrimidine-4-carbonyl]piperidin-4-ylpyridine-4-carboxamide] | 1800 | 68 | 2100
17 | CC(=O)N1CCC(Nc2cc(C(=O)N3CCC(NC(=O)C4CC4)CC3)nc(-c3cnn4ccsc34)n2)CC1 [Example 188, N-(1-6-[(l-acetylpiperidin-4-yl)amino]-2-(pyrazolo[5,1-b][1,3]thiazol-7-yl)pyrimidine-4-carbonylpiperidin-4-yl)cyclopropanecarboxamide] | > 10000 | 1300 | > 10000
18 | CS(=O)(=O)N1CCC(Nc2cc(C(=O)N3CCC(NC(=O)C4CC4)CC3)nc(-c3cnn4ccsc34)n2)CC1 [Example 189, N-1-[6-[1-(methanesulfonyl)piperidin-4-yl]amino-2-(pyrazolo[5,1-b][1,3]thiazol-7-yl)pyrimidine-4-carbonyl]piperidin-4-ylcyclopropanecarboxamide] | > 10000 | 1100 | > 10000
19 | CCCCC(=O)NC1CCN(C(=O)c2cc(N[C@@H](C)C3CC3)nc(-c3cnn4ccsc34)n2)CC1 [Example 190, N-1-[6-[(1S)-1-cyclopropylethyl]amino-2-(pyrazolo[5,1-b][1,3]thiazol-7-yl)pyrimidine-4-carbonyl]piperidin-4-ylpentanamide] | 1000 | 65 | 6600
20 | N#CCC(=O)N1CC[C@@H](Nc2cc(C(=O)N3CCC(NC(=O)C4CC4)CC3)nc(-c3cnn4ccsc34)n2)C1 [Example 191, N-1-[6-[(3R)-1-(cyanoacetyl)pyrrolidin-3-yl]amino-2-(pyrazolo[5,1-b][1,3]thiazol-7-yl)pyrimidine-4-carbonyl]piperidin-4-ylcyclopropanecarboxamide] | > 10000 | 52 | > 10000
